# Reference: patent US11655244B2, “Carbazole compounds and methods of use thereof” (GSNO Therapeutics, Inc, priority 2017, dated 2023)
# Like-named read-outs stand apart in the source and are kept apart here.
# What was measured:
# [1] = target: T1, GSNOR enzyme (Homo sapiens, UniProt P11766); experiment: GSNOR inhibition assay (rate of NADH consumption, 340 nm absorbance); assay type: biochemical
# Description: The following compounds were also prepared based on the methods described herein, using the appropriate starting materials. Table 2a and Table 2b also provides the % GSNOR inhibition at 20 μM of compounds described herein. […] The buffer was 100 mM phosphate buffer (pH 7.4.) The rate of NADH consumption for each well was determined by ultraviolet spectroscopy. Plates were read on a Molecular Devices Spectra Max UV/Visible Spectrophotometer/plate reader and the change in 340 nm absorbance at 25° C. was recorded for each well at 10 sec intervals over the duration of the recording period (2˜5 minutes). The rate was measured from the linear portion of the curve. Final test compound concentration was 20 μM. The mean % inhibition from 3 test compound wells and 5 control wells was measured as the percentage of the mean no compound+enzyme−the mean no enzyme, no compound control.
# [2] = target: T1, GSNOR enzyme; experiment: as above; assay type: biochemical; details: Table 2b; read-out: IC50 Micromolar
# [3] = test system: IL-6; experiment: LPS/cytokine assay (mouse inflammation assay), IL-6; assay type: in vivo, CD-1 male mice; details: for LPS/IL6 Lowest tested active: CD-1 male mice, IP or IV, cytokine typically 6 hrs after LPS
# Description: Table 2b also includes additional biological data of compounds described herein. The LPS/cytokine Assay was carried out in CD-1 male mice. The assay measured the level of various cytokines, including IL-6, IL-17, and IL-23, after induction by bacterial liposaccharide (LPS). Compounds were dosed by IP or IV routes of administration at varying times before and after LPS and the cytokine concentrations were measured at varying times, typically 6 hrs, after LPS by standard methods using ELISA kits.
# BIOLOGICAL TESTING: Compounds 10 and 17 from Table 1 were tested in a mouse inflammation assay. Briefly, CD-1 mice were dosed with compound, 12 hrs before injecting mice I.P. with the potent cytokine inducer, bacterial lipopolysaccharide (LPS). The mice were euthanized 6 hrs after the LPS was injected and their serum prepared by standard methods. The concentration of IL-6 in the serum of each experimental animal was measured using an IL-6 ELISA kit from Enzo. The compounds tested were active.
# This LPS/cytokine assay was carried out in healthy mice and measured the level of cytokine IL-6, IL-17, and 23 induction by LPS. Compounds are dosed (either orally (“p.o.”) or intravenously (“i.v.”) at varying times before and after LPS, and the cytokines are measured at varying times after LPS. The effect of the tested compounds (Table 5) on IL-6 release is shown in FIG. 7. The effect of the tested compounds (Table 6) on IL-17 an IL-23 release is shown in FIG. 11 and FIG. 12, respectively.
# [4] = test system: non-alcoholic steatohepatitis (NASH) in male C57BL/6 mice; experiment: Non-alcoholic steatohepatitis (NASH) model, Streptozotocin plus 60% kcal fat diet; assay type: in vivo; details: for liver to body weight ratio: disease control 0.066; for decrease of percentage collagen proportion area (CPA), Masson's trichrome staining, liver: vs disease control
# Description: Timed pregnant mice (n=44) were selected for the study. The delivered pups were subcutaneously injected on post-natal day 2 with 200 μg of Streptozotocin and were allowed to remain with the mother until they reached the weanling age. After weanling, the male pups were selected and fed with 60% kcal fat diet (Research Diet-D12492) for next 6 weeks. All the animals were observed once daily for clinical signs and twice daily for morbidity and mortality.
# Mice were dosed with vehicle, Compound 17 (at 3 mg/kg or 10 mg/kg) and 10 mg/kg of reference compound (either Obeticholic acid (OCA) or Elafibranor (ELA, GFT505)) once daily before the start of dark cycle (6:00 PM) from day 0 to 21. Animal body weight measurements were made daily for the complete duration of the experiment. Animals were dosed for 21 days (from week 9 to 12) with the test and reference compounds. Blood glucose was estimated before the treatment start, day 11 and on the termination day. Histopathology analysis including the H&E staining, Masson's trichrome staining and the Oil-red-O (ORO) staining was performed for the liver tissues.
# [5] = Table 2a, test compound 20 μM, pH 7.4, 25° C., read-out: % Inhibit. at 20 μM
# [6] = Table 2b, test compound 20 uM, read-out: % GSNOR Inhibition at 20 uM
# T1 sequence (P11766 whole entry): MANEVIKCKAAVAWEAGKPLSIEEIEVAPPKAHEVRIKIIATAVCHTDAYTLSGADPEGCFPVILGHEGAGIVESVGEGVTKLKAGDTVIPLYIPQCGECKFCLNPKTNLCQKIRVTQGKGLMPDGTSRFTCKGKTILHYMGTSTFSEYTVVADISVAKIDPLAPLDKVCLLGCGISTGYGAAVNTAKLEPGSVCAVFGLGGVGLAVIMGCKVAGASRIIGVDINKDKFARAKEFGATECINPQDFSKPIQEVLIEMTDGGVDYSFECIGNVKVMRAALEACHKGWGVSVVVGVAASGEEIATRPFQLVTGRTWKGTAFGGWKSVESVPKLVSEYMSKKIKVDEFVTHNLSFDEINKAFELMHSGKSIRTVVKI
structure (smiles),measurement,setting,value
"NC(=O)CCn1c2cc(Cn3ccnc3)ccc2c2ccc(C(=O)O)cc21 [Compound 8, 9-(3-amino-3-oxopropyl)-7-[(1H-imidazol-1-yl)methyl]-9H-carbazole-2-carboxylic acid]",inhibition at 20 µM,[1]; [5],80%
same,inhibition at 20 µM,[1]; [6],80%
same,IC50,[2],1000 to 5000 nM
"NC(=O)CCn1c2ccc(-n3ccnc3)cc2c2ccc(C(=O)O)cc21 [Compound 10, 9-(3-amino-3-oxopropyl)-6-(1H-imidazo-1-yl)-9H-carbazole-2-carboxylic acid]",inhibition at 20 µM,[1]; [5],85%
same,inhibition at 20 µM,[1]; [6],75%
same,LPS/IL6 Lowest tested active,[3],30 mg/kg
same,IL-6 in serum after LPS (mouse inflammation assay),"[3]; dosed 12 hrs before LPS I.P., serum 6 hrs after LPS",active
same,IC50,[2],< 1000 nM
"NC(=O)c1ccc(-n2c3cc(Cn4ccnc4)ccc3c3ccc(C(=O)O)cc32)c([N+](=O)[O-])c1 [Compound 16, 9-(4-aminocarbonyl-2-nitrophenyl)-7-[(1H-imidazol-1-yl)methyl]-9H-carbazole-2-carboxylic acid]",inhibition at 20 µM,[1]; [5],89%
same,inhibition at 20 µM,[1]; [6],89%
same,IC50,[2],1000 to 5000 nM
N#Cc1ccc(-n2c3ccc(-n4ccnc4)cc3c3ccc(CCC(=O)O)cc32)cc1 [Compound 18],inhibition at 20 µM,[1]; [6],72.4%
same,IC50,[2],> 5000 nM
Cc1cc(C#N)ccc1-n1c2ccc(-n3ccnc3)cc2c2ccc(CCC(=O)O)cc21 [Compound 19],inhibition at 20 µM,[1]; [6],81.3%
same,IC50,[2],1000 to 5000 nM
NC(=O)c1ccc(-n2c3ccc(-n4ccnc4)cc3c3ccc(CCC(=O)O)cc32)cc1 [Compound 20],inhibition at 20 µM,[1]; [6],88.9%
same,LPS/IL6 Lowest tested active,[3],0.3 mg/kg
same,IC50,[2],1000 to 5000 nM
Cc1cc(C(N)=O)ccc1-n1c2ccc(-n3ccnc3)cc2c2ccc(CCC(=O)O)cc21 [Compound 21],inhibition at 20 µM,[1]; [6],93.6%
same,LPS/IL6 Lowest tested active,[3],0.3 mg/kg
same,IC50,[2],1000 to 5000 nM
O=C(O)CCc1ccc2c3cc(-n4ccnc4)ccc3n(-c3ccc(Cl)cc3)c2c1 [Compound 22],inhibition at 20 µM,[1]; [6],81.4%
O=C(O)CCc1ccc2c3cc(-n4ccnc4)ccc3n(-c3ccc(O)cc3)c2c1 [Compound 23],inhibition at 20 µM,[1]; [6],93.4%
COc1ccc(-n2c3ccc(-n4ccnc4)cc3c3ccc(CCC(=O)O)cc32)cc1 [Compound 24],inhibition at 20 µM,[1]; [6],90%
COc1ccc(-n2c3ccc(-n4ccnc4)cc3c3ccc(CCC(=O)O)cc32)c(C)c1 [Compound 25],inhibition at 20 µM,[1]; [6],92%
"N#CCCn1c2ccc(-n3ccnc3)cc2c2ccc(CCC(=O)O)cc21 [Compound 26, 3-(imidazol-1(H)-yl)-7-(2-carboxylethyl)-9(H)-(2-cyanoethyl) carbazole]",inhibition at 20 µM,[1]; [6],92.4%
same,LPS/IL6 Lowest tested active,[3],0.3 mg/kg
same,IC50,[2],< 1000 nM
"NC(=O)CCn1c2ccc(-n3ccnc3)cc2c2cc(F)c(C(=O)O)cc21 [Compound E1, 9-(3-amino-3-oxopropyl)-3-fluoro-6-(1H-imidazol-1-yl)-9H-carbazole-2-carboxylic acid]",inhibition at 20 µM,[1]; [5],18%
"N#Cc1ccc(-n2c3cc(CNc4nccs4)ccc3c3ccc(C(=O)O)cc32)c([N+](=O)[O-])c1 [Compound G1, 9-(4-cyano-2-nitrophenyl)-7-((thiazol-2-ylamino)methyl)-9H-carbazole-2-carboxylic acid]",inhibition at 20 µM,[1]; [5],15%
"N#Cc1ccc(-n2c3cc(CNc4ncco4)ccc3c3ccc(C(=O)O)cc32)c([N+](=O)[O-])c1 [Compound H1, 9-(4-cyano-2-nitrophenyl)-7-((oxazol-2-ylamino)methyl)-9H-carbazole-2-carboxylic acid]",inhibition at 20 µM,[1]; [5],0%
"NC(=O)c1ccc(-n2c3cc(CNc4ncco4)ccc3c3ccc(C(=O)O)cc32)c([N+](=O)[O-])c1 [Compound I1, 9-(4-carbamoyl-2-nitrophenyl)-7-((oxazol-2-ylamino)methyl)-9H-carbazole-2-carboxylic acid]",inhibition at 20 µM,[1]; [5],0%
"NC(=O)c1ccc(-n2c3cc(CNc4nccs4)ccc3c3ccc(C(=O)O)cc32)c([N+](=O)[O-])c1 [Compound J1, 9-(4-carbamoyl-2-nitrophenyl)-7-((thiazol-2-ylamino)methyl)-9H-carbazole-2-carboxylic acid]",inhibition at 20 µM,[1]; [5],9%
"CSc1ccc(C(=O)/C=C/c2cc(C)c(OC(C)(C)C(=O)O)c(C)c2)cc1 [Elafibranor, reference compound]",NAS,[4]; 10 mg/kg,2.67
same,ORO (Oil-Red-O) steatosis score relative to disease control,[4]; 10 mg/kg,−11%
same,change of liver to body weight ratio compared with disease control,[4]; 10 mg/kg,+40%
same,plasma glucose relative to disease control (in words),[4]; 10 mg/kg once daily,neither OCA nor ELA reduced glucose
same,"body weight, statistical significance","[4]; 10 mg/kg, day 7 and 12 post-treatment",statistically significant (*p<0.05) increase in body weight
same,weight put on relative to naïve controls at day 21,[4]; 10 mg/kg,+43%
same,liver to body weight ratio,[4]; 10 mg/kg,0.092
same,"decrease of percentage collagen proportion area (CPA), Masson's trichrome staining, liver",[4]; 10 mg/kg,54%
same,"change in body weight (g), Mean","[4]; Day 1, 10 mg/kg once daily",0.00 g
same,"change in body weight (g), Mean","[4]; Day 2, 10 mg/kg once daily",0.70 g
same,"change in body weight (g), Mean","[4]; Day 3, 10 mg/kg once daily",1.18 g
same,"change in body weight (g), Mean","[4]; Day 4, 10 mg/kg once daily",0.93 g
same,"change in body weight (g), Mean","[4]; Day 5, 10 mg/kg once daily",1.42 g
same,"change in body weight (g), Mean","[4]; Day 6, 10 mg/kg once daily",1.31 g
same,"change in body weight (g), Mean","[4]; Day 7, 10 mg/kg once daily",1.43 g
same,"change in body weight (g), Mean","[4]; Day 8, 10 mg/kg once daily",1.49 g
same,"change in body weight (g), Mean","[4]; Day 9, 10 mg/kg once daily",1.71 g
same,"change in body weight (g), Mean","[4]; Day 10, 10 mg/kg once daily",1.69 g
same,"change in body weight (g), Mean","[4]; Day 11, 10 mg/kg once daily",1.47 g
same,"change in body weight (g), Mean","[4]; Day 12, 10 mg/kg once daily",-0.17 g
same,"change in body weight (g), Mean","[4]; Day 13, 10 mg/kg once daily",1.73 g
same,"change in body weight (g), Mean","[4]; Day 14, 10 mg/kg once daily",1.96 g
same,"change in body weight (g), Mean","[4]; Day 15, 10 mg/kg once daily",2.00 g
same,"change in body weight (g), Mean","[4]; Day 16, 10 mg/kg once daily",1.64 g
same,"change in body weight (g), Mean","[4]; Day 17, 10 mg/kg once daily",1.82 g
same,"change in body weight (g), Mean","[4]; Day 18, 10 mg/kg once daily",2.16 g
same,"change in body weight (g), Mean","[4]; Day 19, 10 mg/kg once daily",2.26 g
same,"change in body weight (g), Mean","[4]; Day 20, 10 mg/kg once daily",1.88 g
same,"change in body weight (g), Mean","[4]; Day 21, 10 mg/kg once daily",2.22 g
"CC[C@H]1[C@@H](O)[C@@H]2[C@H](CC[C@]3(C)[C@@H]([C@H](C)CCC(=O)O)CC[C@@H]23)[C@@]2(C)CC[C@@H](O)C[C@@H]12 [Obeticholic acid, reference compound]",NAS,[4]; 10 mg/kg,3.20
same,ORO (Oil-Red-O) steatosis score relative to disease control,[4]; 10 mg/kg,−1%
same,change of liver to body weight ratio compared with disease control,[4]; 10 mg/kg,−11%
same,weight put on relative to naïve controls at day 21,[4]; 10 mg/kg,+28%
same,liver to body weight ratio,[4]; 10 mg/kg,0.058
same,"decrease of percentage collagen proportion area (CPA), Masson's trichrome staining, liver",[4]; 10 mg/kg,50%
same,"change in body weight (g), Mean","[4]; Day 1, 10 mg/kg once daily",0.00 g
same,"change in body weight (g), Mean","[4]; Day 2, 10 mg/kg once daily",0.43 g
same,"change in body weight (g), Mean","[4]; Day 3, 10 mg/kg once daily",0.57 g
same,"change in body weight (g), Mean","[4]; Day 4, 10 mg/kg once daily",0.43 g
same,"change in body weight (g), Mean","[4]; Day 5, 10 mg/kg once daily",0.45 g
same,"change in body weight (g), Mean","[4]; Day 6, 10 mg/kg once daily",0.78 g
same,"change in body weight (g), Mean","[4]; Day 7, 10 mg/kg once daily",0.58 g
same,"change in body weight (g), Mean","[4]; Day 8, 10 mg/kg once daily",0.89 g
same,"change in body weight (g), Mean","[4]; Day 9, 10 mg/kg once daily",0.85 g
same,"change in body weight (g), Mean","[4]; Day 10, 10 mg/kg once daily",1.06 g
same,"change in body weight (g), Mean","[4]; Day 11, 10 mg/kg once daily",0.78 g
same,"change in body weight (g), Mean","[4]; Day 12, 10 mg/kg once daily",0.06 g
same,"change in body weight (g), Mean","[4]; Day 13, 10 mg/kg once daily",0.82 g
same,"change in body weight (g), Mean","[4]; Day 14, 10 mg/kg once daily",1.05 g
same,"change in body weight (g), Mean","[4]; Day 15, 10 mg/kg once daily",0.54 g
same,"change in body weight (g), Mean","[4]; Day 16, 10 mg/kg once daily",0.82 g
same,"change in body weight (g), Mean","[4]; Day 17, 10 mg/kg once daily",1.43 g
same,"change in body weight (g), Mean","[4]; Day 18, 10 mg/kg once daily",1.52 g
same,"change in body weight (g), Mean","[4]; Day 19, 10 mg/kg once daily",1.81 g
same,"change in body weight (g), Mean","[4]; Day 20, 10 mg/kg once daily",1.62 g
same,"change in body weight (g), Mean","[4]; Day 21, 10 mg/kg once daily",1.98 g
